Measurements reported in patent US9216183B2, “Topical treatment for chemotherapy induced eyelash loss or hypotrichosis using prostamide F2 alpha agonists” (ALLERGAN, INC., priority 2002, dated 2015).
“Also recorded” adds a separate entry of the source.

How the values were obtained:
Format in all cases: in vivo, human
[1] = Safety (adverse events, IOP), idiopathic hypotrichosis subpopulation
Method: (§1) Safety measures included adverse events (AEs), ophthalmic examination (ophthalmoscopy [dilated], biomicroscopy, IOP, iris color assessment, and BCVA). AEs were monitored throughout the study by the investigator.
(§2) The 12-month data were the primary focus of the safety evaluation. Safety data were summarized with descriptive statistics (n, or frequency distributions [counts or percentages]). Biomicroscopic examinations and assessments of iris color, IOP, and BCVA were performed for each subject at screening/baseline and months 1, 2, 4, 6, 8, and 12 (or early termination prior to month 12); ophthalmoscopic examinations (dilated) were performed at screening/baseline and months 6 and 12 (or early termination prior to month 12). Two IOP measurements were taken for each eye at each visit; a third measurement was taken if the difference between the first 2 measurements was more than 2 mm Hg. The average or median IOP was determined in the event that 2 or 3 measurements were made, respectively. The IOP value analyzed at each visit was the average IOP of the subject's 2 eyes. Change and percent change from baseline in IOP were summarized by descriptive statistics. Between-group comparison will be performed using the 1-way analysis of variance.

[2] = Safety, overall study population (adverse events, ophthalmic examination, IOP, iris color)
Method: as §1, §2
Iris color assessments were performed using a 10-category subjective classification: blue, blue-gray, blue/gray-brown, gray, green, green-brown, hazel, brown, dark brown, and other.

[3] = tested on: eyelashes of subjects with idiopathic hypotrichosis; test: Digital image analysis of upper eyelash length, thickness, darkness, idiopathic hypotrichosis; conditions: for Upper eyelash length, mean % change from baseline / Upper eyelash length, mean value / Upper eyelash thickness, mean % change from baseline / Upper eyelash thickness, mean value / Upper eyelash darkness, mean % change from baseline / Upper eyelash darkness, mean value: Bim/Veh group (n = 60); for Upper eyelash darkness, mean % change from baseline / Upper eyelash darkness, mean percent change from baseline: negative = darker; for Upper eyelash darkness, mean value: scale 0 black to 255 white
Method: Secondary efficacy measures were based on digital image analysis (DIA) of eyelash characteristics: upper eyelash length (millimeters [mm]), thickness (mm^2), and darkness (intensity units). For darkness, a negative value in terms of change from baseline indicated darker eyelashes. Upper eyelash characteristics of length, thickness, and darkness were determined by a validated DIA method. The reliability and reproducibility of DIA have been verified within the acceptance criteria of 0.05% or less of mean coefficient of variance. The principal variables for the secondary efficacy assessments are: change from baseline in upper eyelash length (mm), average progressive eyelash thickness (mm^2), and eyelash darkness (intensity units) at months 4, 6, 10, and 12 or early termination. Descriptive statistics of the raw value at baseline and percent change from baseline at follow-up visits were summarized by treatment group for each principal measure of the 3 secondary variables of eyelash characteristics. Between-group comparisons were performed using a van Elteren test stratified by hypotrichosis etiology.

[4] = overall population during bimatoprost treatment periods
[5] = subjects treated with bimatoprost, 10-category scale
[6] = Month 10 (vehicle since month 6)
[7] = Month 12 (vehicle since month 6)
[8] = Month 4, all bimatoprost TP1 (n = 179)
[9] = Month 4, all bimatoprost TP1 (n = 179), listed as Bimatoprost
[10] = Month 6, all bimatoprost TP1 (n = 179)
[11] = Month 6, group treated up to 12 months with bimatoprost
[12] = Month 12, group treated up to 12 months with bimatoprost

Compound `CCNC(=O)CCC/C=C\C[C@@H]1[C@@H](/C=C/[C@@H](O)CCc2ccccc2)[C@H](O)C[C@@H]1O` [Bim 0.03%, bimatoprost] has a Conjunctival hyperaemia ([1]; 0 to 6 Months (N = 118)) of 5.9%, an Erythema of eyelid ([1]; 0 to 6 Months (N = 118)) of 1.7% and an Eye pruritus ([1]; 0 to 6 Months (N = 118)) of 0.8%. The Eyelids pruritus ([1]; 0 to 6 Months (N = 118)) was 5.1%, the Punctate keratitis ([1]; 0 to 6 Months (N = 118)) was 2.5% and the Skin hyperpigmentation ([1]; 0 to 6 Months (N = 118)) was 0.0%. It also gave a Conjunctival hyperaemia ([1]; 0 to 12 Months (N = 118)) of 8.5%, an Erythema of eyelid ([1]; 0 to 12 Months (N = 118)) of 5.1% and an Eye pruritus ([1]; 0 to 12 Months (N = 118)) of 0.8%. The Eyelids pruritus ([1]; 0 to 12 Months (N = 118)) was 5.9%, the Punctate keratitis ([1]; 0 to 12 Months (N = 118)) was 2.5% and the Skin hyperpigmentation ([1]; 0 to 12 Months (N = 118)) was 1.7%. For the same compound, the Conjunctival hyperaemia ([1]; 6 to 12 Months (N = 106)) was 3.8%, the Erythema of eyelid ([1]; 6 to 12 Months (N = 106)) was 4.7% and the Eye pruritus ([1]; 6 to 12 Months (N = 106)) was 0.0%. It also gave an Eyelids pruritus ([1]; 6 to 12 Months (N = 106)) of 0.9%, a Punctate keratitis ([1]; 6 to 12 Months (N = 106)) of 0.0% and a Skin hyperpigmentation ([1]; 6 to 12 Months (N = 106)) of 1.9%. For the same compound, the “Mean change from baseline in IOP” value ([1]; month 4, IOP measured in mm Hg) was −1.17, the “1-category change in iris hyperpigmentation reported as an AE” value ([2]; about 2 months after discontinuation of bimatoprost and initiation of vehicle, mild) was 1 subject and the “Greatest magnitude of mean change from baseline IOP” value ([2]; any time point, any group) was “less than 2 mm Hg”. For the same compound, the “Subjects with biomicroscopy and ophthalmoscopy findings of at least a 2-severity grade increase from baseline” value ([2]; bimatoprost 0.03% followed by vehicle (6-month treatment period)) was 5.0%, the “Subjects with biomicroscopy and ophthalmoscopy findings of at least a 2-severity grade increase from baseline” value ([2]; bimatoprost during both treatment periods (12-month treatment period)) was 4.2% and the “Drug-related serious adverse events” value ([2]; both subpopulations, 12-month study) was “No drug-related serious adverse events were reported; also recorded: no serious AEs attributed to study treatment”. The Conjunctival hyperaemia [2, 4] was 12.1%, the Erythema [2, 4] was 4.2% and the Eyelid pruritus [2, 4] was 4.7%. For the same compound, the Punctuate keratitis [2, 4] was 5.6%, the “1- to 2-category iris color change from dark to light” value [2, 5] was 6 subjects and the “1-category iris color change from light to dark” value [2, 5] was 5 subjects. The “Subjects with biomicroscopy and ophthalmoscopy findings of at least a 2-severity grade increase from baseline” value ([2]; vehicle followed by bimatoprost (6-month treatment period)) was 2.4%, the “Subjects discontinued due to a treatment-related AE” value ([2]; whole study (study treatment), all in idiopathic subpopulation) was 2.8% and the “Enophthalmos leading to treatment discontinuation” value ([2]; whole study, mild/moderate) was 1 subject. For the same compound, the “Upper eyelash length, mean % change from baseline” value ([3]; Month 4 (on bimatoprost)) was 21.01%, the “Upper eyelash length, mean value” ([3]; Month 4 (on bimatoprost)) was 6.8 mm and the “Upper eyelash thickness, mean % change from baseline” value ([3]; Month 4 (on bimatoprost)) was 73.7%. The “Upper eyelash thickness, mean value” ([3]; Month 4 (on bimatoprost)) was 1.2 mm^2, the “Upper eyelash darkness, mean % change from baseline” value ([3]; Month 4 (on bimatoprost)) was −16.01% and the “Upper eyelash darkness, mean value” ([3]; Month 4 (on bimatoprost)) was 126.3 intensity units. For the same compound, the “Upper eyelash length, mean % change from baseline” value ([3]; Month 6 (on bimatoprost)) was 25.70%, the “Upper eyelash length, mean value” ([3]; Month 6 (on bimatoprost)) was 7.1 mm and the “Upper eyelash thickness, mean % change from baseline” value ([3]; Month 6 (on bimatoprost)) was 79.9%. The “Upper eyelash thickness, mean value” ([3]; Month 6 (on bimatoprost)) was 1.2 mm^2, the “Upper eyelash darkness, mean % change from baseline” value ([3]; Month 6 (on bimatoprost)) was −14.89% and the “Upper eyelash darkness, mean value” ([3]; Month 6 (on bimatoprost)) was 128.0 intensity units. For the same compound, the “Upper eyelash length, mean % change from baseline” value [3, 6] was 6.46%, the “Upper eyelash length, mean value” [3, 6] was 6.0 mm and the “Upper eyelash thickness, mean % change from baseline” value [3, 6] was 13.0%. For the same compound, the “Upper eyelash thickness, mean value” [3, 6] was 0.8 mm^2, the “Upper eyelash darkness, mean % change from baseline” value [3, 6] was −3.97% and the “Upper eyelash darkness, mean value” [3, 6] was 143.7 intensity units. The “Upper eyelash length, mean % change from baseline” value [3, 7] was 4.62%, the “Upper eyelash length, mean value” [3, 7] was 5.9 mm and the “Upper eyelash thickness, mean % change from baseline” value [3, 7] was 15.9%. For the same compound, the “Upper eyelash thickness, mean value” [3, 7] was 0.9 mm^2, the “Upper eyelash darkness, mean % change from baseline” value [3, 7] was −4.29% and the “Upper eyelash darkness, mean value” [3, 7] was 143.6 intensity units. For the same compound, the “Upper eyelash length, mean percent change from baseline” value [3, 8] was 22.90%, the “Upper eyelash thickness, mean percent change from baseline” value [3, 8] was 95.90% and the “Upper eyelash length, mean percent change from baseline” value [3, 9] was 22.9 (177) %. The “Upper eyelash thickness, mean percent change from baseline” value [3, 9] was 95.9 (150) %, the “Upper eyelash darkness, mean percent change from baseline” value [3, 8] was −15.70% and the “Upper eyelash darkness, mean percent change from baseline” value [3, 9] was −15.7 (150) %. For the same compound, the “Upper eyelash length, mean percent change from baseline” value [3, 10] was 26.0 (177) %, the “Upper eyelash thickness, mean percent change from baseline” value [3, 10] was 91.4 (150) % and the “Upper eyelash darkness, mean percent change from baseline” value [3, 10] was −14.1 (150) %. The “Eyelash length, mean percent increase from baseline” value [3, 11] was 26.17%, the “Eyelash length, median percent increase from baseline” value [3, 11] was 22.4% and the “Increase in mean eyelash length from baseline” value [3, 11] was 1.44 mm. For the same compound, the “Eyelash length, mean percent increase from baseline” value [3, 12] was 25.86% and the “Eyelash length, median percent increase from baseline” value [3, 12] was 22.63%.
